Measurements: patent publication US12209102B2, “Heterocyclic compounds and uses thereof” (Kumquat Biosciences Inc., priority 2022, dated 2025)

How the values were obtained:
Assay type in all cases: biochemical
K-Ras G12S = target: T1, K-Ras G12S (Homo sapiens, UniProt P01116, G12S); assay: HTRF resonance energy transfer assay, K-Ras G12S / SOS1 interaction; conditions: HTRF assay of Example 5; read-out: IC50 against K-Ras G12S
T1 construct: made in house; host or cells: E. coli BL21 (DE3)
From the text: (§1) This assay can be also used to assess a selective inhibition or reduction of signaling output of a mutant Ras protein relative to a wildtype, or relative to a different mutant Ras protein. For example, the equilibrium interaction of wildtype Kras or K-Ras mutant (e.g., wildtype or a mutant thereof) with SOS1 (e.g., hSOS1) can be assessed as a proxy or an indication for a subject compound's ability to bind and inhibit Ras protein. HTRF assay detects from (i) a fluorescence resonance energy transfer (FRET) donor (e.g., antiGST-Europium) that is bound to GST-tagged K-Ras mutant to (ii) a FRET acceptor (e.g., anti-6His-XL665) bound to a His-tagged hSOS1.
(§2) The assay buffer can contain˜5 mM HEPES pH 7.4, ˜150 mM NaCl, ˜ 1 mM DTT, 0.05% BSA and 0.0025%(v/v) Igepal. A Ras working solution is prepared in an assay buffer containing typically a suitable amount of the protein construct (e.g., GST-tagged K-Ras mutant) and the FRET donor (e.g., antiGST-Eu(K) from Cisbio, France). A SOS1 working solution is prepared in an assay buffer containing suitable amount of the protein construct (e.g., His-hSOS1) and the FRET acceptor (e.g., anti-6His-XL665 from Cisbio, France). A suitable amount of the protein construct will depend on the range of activity or range of IC50 values being detected or under investigation. For detecting IC50 within a range of 500 nM, the protein constructs of the same range of molarity can be utilized.
(§3) A fixed volume of DMSO with or without test compound is transferred into a 384-well plate. Ras working solution is added to all wells of the test plate. SOS1 working solution is added to all wells except for those that are subsequently filled the inhibitor control solution. Upon incubation for about 10 minutes or longer, the fluorescence is measured with a M1000Pro plate reader (Tecan) using HTRF detection (excitation 337 nm, emission 1: 620 nm, emission 2: 665 nm). Compounds are tested in duplicates at different concentrations (for example, 10 μM, 2.5 μM, 0.63 μM, 0.16 μM, 0.04 μM, 0.01 μM test compound). The ratiometric data (i.e., emission 2 divided by emission 1) is used to calculate IC50 values against Ras using GraphPad Prism (GraphPad software). Following this general procedure, samples were tested with or without a subject compound disclosed herein including compounds exemplified in Table 1 to assess their abilities to inhibit a K-Ras mutant relative to another mutant or WT. Signaling output measured in terms of IC50 values can be obtained, a ratio of IC50 against one mutant relative to another mutant can be calculated. For instance, a selective reduction of K-Ras G12D signaling output can be evidenced by a ratio greater than one. In particular, a selective reduction of K-Ras G12D signaling relative to K-Ras WT signaling is evidenced as the ratio of IC50 (against K-Ras WT) to IC50 (against K-Ras G12D) is greater than 1.

K-Ras WT = target: T2, K-Ras WT (Homo sapiens, UniProt P01116); assay: HTRF resonance energy transfer assay, K-Ras WT / SOS1 interaction; conditions: HTRF assay of Example 5; read-out: IC50 against K-Ras WT
T2 construct: made in house; host or cells: E. coli BL21 (DE3)
From the text: as §1, §2, §3

K-Ras G12V = target: T3, K-Ras G12V (Homo sapiens, UniProt P01116, G12V); assay: HTRF resonance energy transfer assay, K-Ras G12V / SOS1 interaction; conditions: HTRF assay of Example 5; read-out: IC50 against K-Ras G12V
T3 construct: made in house; host or cells: E. coli BL21 (DE3)
From the text: as §1, §2, §3

K-Ras G12D = target: T4, K-Ras G12D (Homo sapiens, UniProt P01116, G12D); assay: HTRF resonance energy transfer assay, K-Ras G12D / SOS1 interaction; conditions: HTRF assay of Example 5; read-out: IC50 against K-Ras G12D
T4 construct: made in house; host or cells: E. coli BL21 (DE3)
From the text: as §1, §2, §3

Measured: IC50

T3 sequence (P01116 1-188 isoform P01116-2 G12V): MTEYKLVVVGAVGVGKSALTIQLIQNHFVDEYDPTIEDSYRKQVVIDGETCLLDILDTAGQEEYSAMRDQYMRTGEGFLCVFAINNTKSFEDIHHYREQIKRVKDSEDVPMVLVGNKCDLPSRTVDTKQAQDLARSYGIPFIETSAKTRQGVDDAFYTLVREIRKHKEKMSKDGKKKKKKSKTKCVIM
T1 sequence (P01116 1-188 isoform P01116-2 G12S): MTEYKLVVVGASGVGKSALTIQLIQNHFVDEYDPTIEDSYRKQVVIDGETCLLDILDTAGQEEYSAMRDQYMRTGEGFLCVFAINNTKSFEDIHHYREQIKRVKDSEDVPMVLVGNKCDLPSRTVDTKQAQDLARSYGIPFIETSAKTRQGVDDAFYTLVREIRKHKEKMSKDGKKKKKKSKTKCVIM
T2 sequence (P01116 1-188 isoform P01116-2): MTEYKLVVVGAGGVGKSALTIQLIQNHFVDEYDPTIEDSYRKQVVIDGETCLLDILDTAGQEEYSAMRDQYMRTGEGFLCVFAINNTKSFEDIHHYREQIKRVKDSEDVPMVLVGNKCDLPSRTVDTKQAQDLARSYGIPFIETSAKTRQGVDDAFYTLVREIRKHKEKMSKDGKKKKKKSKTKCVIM
T4 sequence (P01116 1-188 isoform P01116-2 G12D): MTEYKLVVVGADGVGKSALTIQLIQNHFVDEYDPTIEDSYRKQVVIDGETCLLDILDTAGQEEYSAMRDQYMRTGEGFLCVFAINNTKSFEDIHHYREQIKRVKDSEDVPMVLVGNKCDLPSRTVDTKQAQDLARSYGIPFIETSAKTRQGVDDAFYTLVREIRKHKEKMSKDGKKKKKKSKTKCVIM

C=C[C@H]1COc2c(Cl)c(-c3ccc(F)c4sc(N)c(C#N)c34)c(F)c3nc(OC[C@@]45CCCN4C[C@H](F)C5)nc(c23)N1CCOC (single isomer, unassigned) [Compound 917]
< 100 nM: all assays above

N#Cc1c(N)sc2c(F)ccc(-c3c(Cl)c4c5c(nc(OC[C@@]67CCCN6C[C@H](F)C7)nc5c3F)N(C3CCN(C5CC5)C3)CCO4)c12 (stereo partly drawn) [Compound 631, 2-amino-4-(8-chloro-4-(1-cyclopropylpyrrolidin-3-yl)-10-fluoro-2-(((2R,7aS)-2-fluorotetrahydro-1H-pyrrolizin-7a(5H)-yl)methoxy)-5,6-dihydro-4H-[1,4]oxazepino[5,6,7-de]quinazolin-9-yl)-7-fluorobenzo[b]thiophene-3-carbonitrile]
< 100 nM: all assays above

N#Cc1c(N)sc2c(F)ccc(-c3c(Cl)c4c5c(nc(OC[C@@]67CCCN6C[C@H](F)C7)nc5c3F)N(C3CC35CCNC5)CCO4)c12 (stereo partly drawn) [Compound 735, 2-amino-4-(8-chloro-10-fluoro-2-(((2R,7aS)-2-fluorotetrahydro-1H-pyrrolizin-7a(5H)-yl)methoxy)-4-(5-azaspiro[2.4]heptan-1-yl)-5,6-dihydro-4H-[1,4]oxazepino[5,6,7-de]quinazolin-9-yl)-7-fluorobenzo[b]thiophene-3-carbonitrile]
< 100 nM: all assays above

N#Cc1c(N)sc2c(F)ccc(-c3c(Cl)c4c5c(nc(OC[C@@]67CCCN6C[C@H](F)C7)nc5c3F)N(CC3CC3C#N)CCO4)c12 (stereo partly drawn) [Compound 738, 2-amino-4-(8-chloro-4-((2-cyanocyclopropyl)methyl)-10-fluoro-2-(((2R,7aS)-2-fluorotetrahydro-1H-pyrrolizin-7a(5H)-yl)methoxy)-5,6-dihydro-4H-[1,4]oxazepino[5,6,7-de]quinazolin-9-yl)-7-fluorobenzo[b]thiophene-3-carbonitrile]
< 100 nM: all assays above

N#Cc1c(N)sc2c(F)ccc(-c3c(Cl)c4c5c(nc(OC[C@@]67CCCN6C[C@H](F)C7)nc5c3F)N(CC(F)F)[C@@H](C3CC(C#N)C3)CO4)c12 (stereo partly drawn) [Compound 753, 2-amino-4-((S)-8-chloro-5-(3-cyanocyclobutyl)-4-(2,2-difluoroethyl)-10-fluoro-2-(((2R,7aS)-2-fluorotetrahydro-1H-pyrrolizin-7a(5H)-yl)methoxy)-5,6-dihydro-4H-[1,4]oxazepino[5,6,7-de]quinazolin-9-yl)-7-fluorobenzo[b]thiophene-3-carbonitrile]
< 100 nM: all assays above

N#Cc1c(N)sc2c(F)ccc(-c3c(Cl)c4c5c(nc(OC[C@@]67CCCN6C[C@H](F)C7)nc5c3F)N(C3CCNCC3)CCO4)c12 [Compound 760, 2-amino-4-(8-chloro-10-fluoro-2-(((2R,7aS)-2-fluorotetrahydro-1H-pyrrolizin-7a(5H)-yl)methoxy)-4-(piperidin-4-yl)-5,6-dihydro-4H-[1,4]oxazepino[5,6,7-de]quinazolin-9-yl)-7-fluorobenzo[b]thiophene-3-carbonitrile]
< 100 nM: all assays above

CC(O)C1COc2c(Cl)c(-c3ccc(F)c4sc(N)c(C#N)c34)c(F)c3nc(OC[C@@]45CCCN4C[C@H](F)C5)nc(c23)N1CC1(N(C)C)CCC1 (stereo partly drawn) [Compound 773, 2-amino-4-(8-chloro-4-((1-(dimethylamino)cyclobutyl)methyl)-10-fluoro-2-(((2R,7aS)-2-fluorotetrahydro-1H-pyrrolizin-7a(5H)-yl)methoxy)-5-(1-hydroxyethyl)-5,6-dihydro-4H-[1,4]oxazepino[5,6,7-de]quinazolin-9-yl)-7-fluorobenzo[b]thiophene-3-carbonitrile]
< 100 nM: all assays above

CNCCCN1CCOc2c(Cl)c(-c3ccc(F)c4sc(N)c(C#N)c34)c(F)c3nc(OC[C@@]45CCCN4C[C@H](F)C5)nc1c23 [Compound 778, 2-amino-4-(8-chloro-10-fluoro-2-(((2R,7aS)-2-fluorotetrahydro-1H-pyrrolizin-7a(5H)-yl)methoxy)-4-(3-(methylamino)propyl)-5,6-dihydro-4H-[1,4]oxazepino[5,6,7-de]quinazolin-9-yl)-7-fluorobenzo[b]thiophene-3-carbonitrile]
< 100 nM: all assays above

N#Cc1c(N)sc2c(F)ccc(-c3c(Cl)c4c5c(nc(OC[C@@]67CCCN6C[C@H](F)C7)nc5c3F)N(C3CCCNC3)CCO4)c12 (stereo partly drawn) [Compound 787, 2-amino-4-(8-chloro-10-fluoro-2-(((2R,7aS)-2-fluorotetrahydro-1H-pyrrolizin-7a(5H)-yl)methoxy)-4-(piperidin-3-yl)-5,6-dihydro-4H-[1,4]oxazepino[5,6,7-de]quinazolin-9-yl)-7-fluorobenzo[b]thiophene-3-carbonitrile]
< 100 nM: all assays above

C#C[C@H]1COc2c(Cl)c(-c3ccc(F)c4sc(N)c(C#N)c34)c(F)c3nc(OC[C@@]45CCCN4C[C@H](F)C5)nc(c23)N1CCC(F)F [Compound 788, 2-amino-4-((5S)-8-chloro-4-(3,3-difluoropropyl)-5-ethynyl-10-fluoro-2-(((2R,7aS)-2-fluorotetrahydro-1H-pyrrolizin-7a(5H)-yl)methoxy)-5,6-dihydro-4H-[1,4]oxazepino[5,6,7-de]quinazolin-9-yl)-7-fluorobenzo[b]thiophene-3-carbonitrile]
< 100 nM: all assays above

N#Cc1c(N)sc2c(F)ccc(-c3c(Cl)c4c5c(nc(OC[C@@]67CCCN6C[C@H](F)C7)nc5c3F)N(CC(F)F)C(C3CCN3)CO4)c12 (stereo partly drawn) [Compound 816, 2-amino-4-(5-(azetidin-2-yl)-8-chloro-4-(2,2-difluoroethyl)-10-fluoro-2-(((2R,7aS)-2-fluorotetrahydro-1H-pyrrolizin-7a(5H)-yl)methoxy)-5,6-dihydro-4H-[1,4]oxazepino[5,6,7-de]quinazolin-9-yl)-7-fluorobenzo[b]thiophene-3-carbonitrile]
< 100 nM: all assays above

N#Cc1c(N)sc2c(F)ccc(-c3c(Cl)c4c5c(nc(OC[C@@]67CCCN6C[C@H](F)C7)nc5c3F)N(C3CNC3)CCO4)c12 [Compound 828, 2-amino-4-(4-(azetidin-3-yl)-8-chloro-10-fluoro-2-(((2R,7aS)-2-fluorotetrahydro-1H-pyrrolizin-7a(5H)-yl)methoxy)-5,6-dihydro-4H-[1,4]oxazepino[5,6,7-de]quinazolin-9-yl)-7-fluorobenzo[b]thiophene-3-carbonitrile]
< 100 nM: all assays above
